Among the data in US20230413825A1, “SHORT AND LONG TERM DIS[…] ALCOHOL AND ZINC PYRITHIONE” (CAO Group, Inc., priority 2020, published 2023) are solubility values, retold here.

Read-outs that look alike come from different tables or passages of the source.

The text on this data set: The present invention also utilizes the salts of pyrithione, especially the zinc salt.

For Zinc pyrithione, the solubility result runs as follows: (in solution in an admixture of alcohols and water) “about 60 ppm”; (in water) “about 8 ppm”.
